Results: article PMC12527922, “Cocaine chemogenetics blunts drug-seeking by synthetic physiology” (Nature, 2025)
Values joined by “and” are separate entries in the source; they are usually repeats but may differ in a detail not shown here. Equal values may be shown once. Read-outs that look alike come from different tables or passages of the source.

Biological target: coca-5HT3 (Homo sapiens, UniProt P36544, G175K/L141G/Y210F/Y217F)
Assay: [^3H]ASEM displacement, membranes of HEK293 cells expressing coca-5HT3
Assay type: binding, human α7 nAChR LBD, mouse 5HT3 IPD
Details: for [3H]ASEM binding, normalised dose-response (DR replicates): HotNM 2.000
Description: Cells were suspended in Tris-HCl 50 mM pH 7.4 supplemented with protease inhibitor cocktail (1:100, Sigma-Aldrich). HEK293 cells were disrupted with a 6 Polytron homogenizer (Kinematica). Homogenates were centrifuged at 48,000g (50 min, 4 °C) and washed twice in the same conditions to isolate the membrane fraction. Protein was quantified using the bicinchoninic acid method (Pierce). […] Free and membrane-bound radioligands were separated by rapid filtration of 500 μl aliquots in a 96-well plate harvester (Brandel) and washed with 2 ml of ice-cold Tris-HCl buffer. Microscint-20 scintillation liquid (65 μl per well, PerkinElmer) was added to the filter plates, plates were incubated overnight at room temperature and radioactivity counts were determined in the MicroBeta2 plate counter (PerkinElmer) with an efficiency of 41%. Two-site competition curves were fitted using Prism 10 (GraphPad). Ki values were calculated using the Cheng–Prusoff equation.

[1] = Two sites - Fit Ki, best-fit value per replicate
[2] = Two sites - Fit Ki, best-fit value, single experiment

Sequence of coca-5HT3 (P23979 242-489): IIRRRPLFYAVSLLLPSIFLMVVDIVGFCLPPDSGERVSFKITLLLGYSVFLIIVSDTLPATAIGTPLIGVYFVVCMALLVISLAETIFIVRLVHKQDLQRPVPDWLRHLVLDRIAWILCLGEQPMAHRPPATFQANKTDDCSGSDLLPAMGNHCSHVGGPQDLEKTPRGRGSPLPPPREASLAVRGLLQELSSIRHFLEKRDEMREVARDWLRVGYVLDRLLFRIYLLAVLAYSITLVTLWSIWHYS
Sequence of coca-5HT3 (P36544 23-224 L141G/G175K/Y210F/Y217F): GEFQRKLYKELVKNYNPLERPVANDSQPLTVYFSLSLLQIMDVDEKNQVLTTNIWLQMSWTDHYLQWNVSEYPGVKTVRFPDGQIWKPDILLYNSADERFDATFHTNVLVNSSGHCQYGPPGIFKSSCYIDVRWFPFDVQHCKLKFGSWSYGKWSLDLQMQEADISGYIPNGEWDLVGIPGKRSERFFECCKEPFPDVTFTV

## COC(=O)[C@H]1[C@@H](OC(=O)c2ccccc2)C[C@@H]2CC[C@H]1N2C [cocaine]
  binding to coca-5HT3: biphasic manner
KiHi MEAN, Two sites - Fit Ki, MEAN of replicates, high-affinity site, concentrations in log(M)
  Ki: 1.43e-11 M
KiHi, Two sites - Fit Ki, best-fit value per replicate, high-affinity site, concentrations in log(M)
  Ki: 2.45e-11 M and 4.07e-12 M
KiHi, Two sites - Fit Ki, best-fit value, single experiment
  Ki: 3.36e-09 M and 4.69e-10 M and 1.04e-09 M
KiLo MEAN, Two sites - Fit Ki, MEAN of replicates, low-affinity site, concentrations in log(M)
  Ki: 8.42e-07 M
KiLo, Two sites - Fit Ki, best-fit value per replicate, low-affinity site, concentrations in log(M)
  Ki: 1.34e-06 M and 3.42e-07 M
Two sites - Fit Ki, MEAN of 3 experiments
  FractionHi MEAN: 0.4542
Two sites - Fit Ki, MEAN of 3 experiments, read-out: KiHi MEAN
  Ki: 1.62e-09 M
Two sites - Fit Ki, MEAN of 3 experiments, read-out: KiLo MEAN
  Ki: 1.05e-05 M
[1]
  Bottom: 2.185 and 3.88
  Top: 100.5 and 97.8
Two sites - Fit Ki, best-fit value per replicate, fraction of high-affinity sites
  FractionHi: 0.3742 and 0.3845
Two sites - Fit Ki, best-fit value per replicate, high-affinity site, concentrations in log(M), HotNM 2.000, HotKdNM 0.1500
  logKiHi: -10.61 and -11.39
Two sites - Fit Ki, best-fit value per replicate, low-affinity site, concentrations in log(M), HotNM 2.000, HotKdNM 0.1500
  logKiLo: -5.872 and -6.466
[2]
  FractionHi: 0.6584 and 0.3371 and 0.3672
  Top: 99.93 and 93.31 and 95.95
Two sites - Fit Ki, MEAN of replicates
  FractionHi MEAN: 0.3794
Biphasic curve, displacement of [^3H]ASEM 2 nM
  high-affinity binding sites: 45 ± 10%
Competitor log(M) -4
  [3H]ASEM binding, normalised dose-response (DR replicates): 11.458 and 0
Competitor log(M) -5
  [3H]ASEM binding remaining, single experiment: 23.47 and 26.447 and 37.669
  [3H]ASEM binding, normalised dose-response (DR replicates): 47.775 and 41.228
Competitor log(M) -5.5
  [3H]ASEM binding remaining, single experiment: 17.557
  [3H]ASEM binding, normalised dose-response (DR replicates): 48.554 and 26.456
Competitor log(M) -6
  [3H]ASEM binding remaining, single experiment: 27.001
  [3H]ASEM binding, normalised dose-response (DR replicates): 57.625 and 37.983
Competitor log(M) -6.5
  [3H]ASEM binding remaining, single experiment: 30.205 and 53.107
  [3H]ASEM binding, normalised dose-response (DR replicates): 51.124 and 74.04
Competitor log(M) -7
  [3H]ASEM binding remaining, single experiment: 57.024 and 47.634
  [3H]ASEM binding, normalised dose-response (DR replicates): 70.9 and 74.174
Competitor log(M) -7.5
  [3H]ASEM binding, normalised dose-response (DR replicates): 71.728
Competitor log(M) -8
  [3H]ASEM binding remaining, single experiment: 65.97 and 67.573 and 58.641
  [3H]ASEM binding, normalised dose-response (DR replicates): 67.385 and 47.743
Competitor log(M) -8.5
  [3H]ASEM binding remaining, single experiment: 74.698 and 69.889 and 68.057
Competitor log(M) -9
  [3H]ASEM binding remaining, single experiment: 100.179 and 77.048 and 83.003
  [3H]ASEM binding, normalised dose-response (DR replicates): 72.343 and 49.428
Competitor log(M) -9.5
  [3H]ASEM binding remaining, single experiment: 97.899 and 80.952 and 89.425
Competitor log(M) -10
  [3H]ASEM binding remaining, single experiment: 96.081 and 90.356 and 93.104
  [3H]ASEM binding, normalised dose-response (DR replicates): 79.023
Competitor log(M) -10.5
  [3H]ASEM binding remaining, single experiment: 106.622 and 85.323 and 92.652
Competitor log(M) -11
  [3H]ASEM binding remaining, single experiment: 94.021 and 93.563 and 93.105
  [3H]ASEM binding, normalised dose-response (DR replicates): 91.338
Competitor log(M) -13
  [3H]ASEM binding remaining, single experiment: 96.794 and 101.374 and 101.832
  [3H]ASEM binding, normalised dose-response (DR replicates): 100.546 and 98.09
high-affinity inhibition constant (KiH), displacement of [^3H]ASEM 2 nM, two-site fit
  Ki: 1.6e-09 ± 9e-10 M
logKiHi, Two sites - Fit Ki, best-fit value, single experiment
  Ki: 3.37e-09 M and 4.69e-10 M and 1.04e-09 M
read-out: low-affinity inhibition constant (KiL), displacement of [^3H]ASEM 2 nM, two-site fit
  Ki: 1e-05 ± 7e-06 M
